{"source": "patent US20240092802A1", "about": "“MU-OPIOID RECEPTOR AGONISTS AND USES THEREFOR” (Kures, Inc., priority 2020, published 2024)", "target": "Human MOR (Homo sapiens (Human), UniProt P35372)", "sequence (P35372 whole entry, the tested form may be a part)": "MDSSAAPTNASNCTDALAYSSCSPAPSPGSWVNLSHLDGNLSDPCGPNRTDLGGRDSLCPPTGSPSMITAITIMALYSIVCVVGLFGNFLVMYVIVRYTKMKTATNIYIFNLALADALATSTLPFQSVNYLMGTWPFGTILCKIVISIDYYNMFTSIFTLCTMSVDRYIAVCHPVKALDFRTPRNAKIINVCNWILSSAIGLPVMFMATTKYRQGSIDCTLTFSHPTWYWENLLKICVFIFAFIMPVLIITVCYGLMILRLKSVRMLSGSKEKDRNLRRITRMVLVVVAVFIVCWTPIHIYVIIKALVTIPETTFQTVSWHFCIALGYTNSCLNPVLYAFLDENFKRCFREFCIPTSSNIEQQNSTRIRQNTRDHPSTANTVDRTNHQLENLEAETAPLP", "test": "BRET G protein activation assay, human MOR in transfected HEK-293T cells", "assay_type": "cell-based", "conditions": "BRET G protein activation, HEK-293T; mean ± SEM; read-out: EC50 Human MOR", "excerpt": "Transfection. Human or mouse MOR cDNA was transfected alongside GαoB with RLuc8 inserted at position 91 (GαoB-RLuc8), Gβ1 (β1), and Gγ2 fused to the full-length mVenus at its N terminus (mVenus γ2) into HEK-293T cells (5×10^6 cells/plate) in 10-cm dishes using PEI (Polysciences Inc.; Warrington, PA) in a 1:1 ratio diluted in Opti-MEM (Life Technologies Corp.; Grand Island, NY) to assay for G protein activation as described previously (Rives, M.-L. et al. J. Biol. Chem. 2012, 287, 27050-4; Negri, A.; Rives, M.-L.; Caspers, M. J. et al. J. Chem. Inf. Model. 2013, 53, 521-526). Cells were maintained in the Dulbecco's Modified Eagle Medium (high glucose #11965; Life Technologies) supplemented with 10% FBS (Premium Select, Atlanta Biologicals; Atlanta, GA) and 100 U/mL penicillin and 100 μg/mL streptomycin (#15140, Life Technologies). After 24 hours the media was changed, and the experiment was performed 24 hours later (48 hours after transfection).\nBRET. Transfected cells were dissociated and resuspended in phosphate-buffered saline (PBS). Approximately 200,000 cells/well were added to a black-framed, white well 96-well plate (#60050; Perkin Elmer; Waltham, MA). The microplate was centrifuged and the cells were resuspended in PBS. Then 5 μM of the luciferase substrate coelenterazine H was added to each well for 5 minutes. Following coelenterazine H addition, ligands were added and the BRET signal was measured at 5 minutes on a PHERAstar FS plate reader. Quantification of the BRET signal required calculating the ratio of the light emitted by the energy acceptor, mVenus (510-540 nm), over the light emitted by the energy donor, RLuc8 (485 nm). […] Dose response curves were fit using three-parameter logistics equation in GraphPad Prism 6."}
{"molecule": "CCOC(=O)CCCCCCNC1c2ccccc2S(=O)(=O)N(C)c2ccsc21", "note": "(stereo not drawn) [compound 6, Ethyl 7-((4-methyl-5,5-dioxido-4,10-dihydrobenzo[f]thieno[3,2-c][1,2]thiazepin-10-yl)amino)heptanoate]", "values": [{"measurement": "EC50", "value": "< 10", "unit": "µM"}]}
{"molecule": "COCCCNC1c2ccccc2S(=O)(=O)N(C)c2ccsc21", "note": "(stereo not drawn) [compound 7, 10-((3-Methoxypropyl)amino)-4-methyl-4,10-dihydrobenzo[f]thieno[3,2-c][1,2]thiazepine 5,5-dioxide]", "values": [{"measurement": "EC50", "value": "< 10", "unit": "µM"}]}
{"molecule": "COCCCNC1c2ccccc2N(C)S(=O)(=O)c2ccccc21", "note": "(stereo not drawn) [compound 10, 11-((3-Methoxypropyl)amino)-6-methyl-6,11-dihydrodibenzo[c,f][1,2]thiazepine 5,5-dioxide]", "values": [{"measurement": "EC50", "value": "< 10", "unit": "µM"}]}
{"molecule": "COCCCNC1c2cc(Br)ccc2N(C)S(=O)(=O)c2cc(Cl)ccc21", "note": "(stereo not drawn) [compound 11, 9-Bromo-3-chloro-11-((3-methoxypropyl)amino)-6-methyl-6,11-dihydrodibenzo[c,f][1,2]thiazepine 5,5-dioxide]", "values": [{"measurement": "EC50", "value": "< 10", "unit": "µM"}]}
{"molecule": "CC(=O)OCCCCCCNC1c2ccccc2N(C)S(=O)(=O)c2cc(Cl)ccc21", "note": "(stereo not drawn) [compound 13, 6-((3-Chloro-6-methyl-5,5-dioxido-6,11-dihydrodibenzo[c,f][1,2]thiazepin-11-yl)amino)hexyl acetate]", "values": [{"measurement": "EC50", "value": "< 10", "unit": "µM"}]}
{"molecule": "COCCCNC1c2ccccc2N(C)S(=O)(=O)c2cc(C)ccc21", "note": "(stereo not drawn) [compound 15, 11-((3-Methoxypropyl)amino)-3,6-dimethyl-6,11-dihydrodibenzo[c,f][1,2]thiazepine 5,5-dioxide]", "values": [{"measurement": "EC50", "value": "< 10", "unit": "µM"}]}
{"molecule": "CCOC(CCCNC1c2ccccc2N(C)S(=O)(=O)c2cc(Cl)ccc21)OCC", "note": "(stereo not drawn) [compound 24, 3-Chloro-11-((4,4-diethoxybutyl)amino)-6-methyl-6,11-dihydrodibenzo[c,f][1,2]thiazepine 5,5-dioxide]", "values": [{"measurement": "EC50", "value": "< 10", "unit": "µM"}]}
{"molecule": "CCCCCCCNC1c2ccccc2N(C)S(=O)(=O)c2cc(Cl)ccc21", "note": "(stereo not drawn) [compound 26, 3-Chloro-11-(heptylamino)-6-methyl-6,11-dihydrodibenzo [c,f][1,2]thiazepine 5,5-dioxide]", "values": [{"measurement": "EC50", "value": "< 10", "unit": "µM"}]}
{"molecule": "COCCCNC1c2ccccc2N(C)S(=O)(=O)c2cc(OC)ccc21", "note": "(stereo not drawn) [compound 27, 3-Methoxy-11-((3-methoxypropyl)amino)-6-methyl-6,11-dihydrodibenzo [c,f][1,2]thiazepine 5,5-dioxide]", "values": [{"measurement": "EC50", "value": "< 10", "unit": "µM"}]}
{"molecule": "COCCCNC1c2ccccc2N(C)S(=O)(=O)c2cc(Oc3ccccc3)ccc21", "note": "(stereo not drawn) [compound 29, 11-((3-Methoxypropyl)amino)-6-methyl-3-phenoxy-6,11-dihydrodibenzo [c,f][1,2]thiazepine 5,5-dioxide]", "values": [{"measurement": "EC50", "value": "< 10", "unit": "µM"}]}
{"molecule": "CN1c2ccccc2C(NCCCC2OCCCO2)c2ccc(Cl)cc2S1(=O)=O", "note": "(stereo not drawn) [compound 31, 11-((3-(1,3-Dioxan-2-yl)propyl)amino)-3-chloro-6-methyl-6,11-dihydrodibenzo[c,f][1,2]thiazepine 5,5-dioxide]", "values": [{"measurement": "EC50", "value": "< 10", "unit": "µM"}]}
{"molecule": "CSCCCNC1c2ccccc2N(C)S(=O)(=O)c2cc(Cl)ccc21", "note": "(stereo not drawn) [compound 33, 3-Chloro-6-methyl-11-((3-(methylthio)propyl)amino)-6,11-dihydrodibenzo[c,f][1,2]thiazepine 5,5-dioxide]", "values": [{"measurement": "EC50", "value": "< 10", "unit": "µM"}]}
{"molecule": "CC(C)OCCCNC1c2ccccc2N(C)S(=O)(=O)c2cc(Cl)ccc21", "note": "(stereo not drawn) [compound 35, 3-Chloro-11-((3-isopropoxypropyl)amino)-6-methyl-6,11-dihydrodibenzo [c,f][1,2]thiazepine 5,5-dioxide]", "values": [{"measurement": "EC50", "value": "< 10", "unit": "µM"}]}
{"molecule": "COCCOCCNC1c2ccccc2N(C)S(=O)(=O)c2cc(Cl)ccc21", "note": "(stereo not drawn) [compound 36, 3-Chloro-11-((2-(2-methoxyethoxy)ethyl)amino)-6-methyl-6,11-dihydrodibenzo[c,f][1,2]thiazepine 5,5-dioxide]", "values": [{"measurement": "EC50", "value": "< 10", "unit": "µM"}]}
{"molecule": "COCCCCNC1c2ccccc2N(C)S(=O)(=O)c2cc(Cl)ccc21", "note": "(stereo not drawn) [compound 39, 3-Chloro-11-((4-methoxybutyl)amino)-6-methyl-6,11-dihydrodibenzo [c,f][1,2]thiazepine 5,5-dioxide]", "values": [{"measurement": "EC50", "value": "< 10", "unit": "µM"}]}
{"molecule": "COCCNC1c2ccccc2N(C)S(=O)(=O)c2cc(Cl)ccc21", "note": "(stereo not drawn) [compound 42, 3-Chloro-11-((2-methoxyethyl)amino)-6-methyl-6,11-dihydrodibenzo [c,f][1,2]thiazepine 5,5-dioxide]", "values": [{"measurement": "EC50", "value": "< 10", "unit": "µM"}]}
{"molecule": "COCCCNC1c2ccccc2S(=O)(=O)N(C)c2c(Br)csc21", "note": "(stereo not drawn) [compound 43, 3-Bromo-10-((3-methoxypropyl)amino)-4-methyl-4, 10-dihydrobenzo[f]thieno[3,2-c][1,2]thiazepine 5,5-dioxide]", "values": [{"measurement": "EC50", "value": "< 20", "unit": "µM"}]}
{"molecule": "CN1c2ccccc2C(NCC2CCOC2)c2ccc(Cl)cc2S1(=O)=O", "note": "(stereo not drawn) [compound 46, 3-chloro-6-methyl-11-(((tetrahydrofuran-3-yl)methyl)amino)-6,11-dihydrodibenzo[c,f][1,2]thiazepine 5,5-dioxide]", "values": [{"measurement": "EC50", "value": "< 10", "unit": "µM"}]}
{"molecule": "CN1CCCC1CCNC1c2ccccc2N(C)S(=O)(=O)c2cc(Cl)ccc21", "note": "(stereo not drawn) [compound 47, 3-chloro-6-methyl-11-((2-(1-methylpyrrolidin-2-yl)ethyl)amino)-6,11-dihydrodibenzo[c,f][1,2]thiazepine 5,5-dioxide]", "values": [{"measurement": "EC50", "value": "< 20", "unit": "µM"}]}
{"molecule": "COCCCNC1c2ccccc2S(=O)(=O)N(C)c2c(OC)cccc21", "note": "(stereo not drawn) [compound 50, 7-Methoxy-11-((3-methoxypropyl)amino)-6-methyl-6,11-dihydrodibenzo [c,f][1,2]thiazepine 5,5-dioxide]", "values": [{"measurement": "EC50", "value": "< 20", "unit": "µM"}]}
{"molecule": "COCCCNC1c2ccccc2N(C)S(=O)(=O)c2cc([S+](C)[O-])ccc21", "note": "(stereo not drawn) [compound 55, 11-((3-Methoxypropyl)amino)-6-methyl-3-(methylsulfinyl)-6,11-dihydrodibenzo[c,f][1,2]thiazepine 5,5-dioxide]", "values": [{"measurement": "EC50", "value": "< 20", "unit": "µM"}]}
{"molecule": "COCCCNC1c2ccccc2N(C)S(=O)(=O)c2cc(-c3ccccc3)ccc21", "note": "(stereo not drawn) [compound 56, 11-((3-Methoxypropyl)amino)-6-methyl-3-phenyl-6,11-dihydrodibenzo[c,f][1,2]thiazepine 5,5-dioxide]", "values": [{"measurement": "EC50", "value": "< 10", "unit": "µM"}]}
{"molecule": "CN1c2ccccc2C(NCCCCCCC(=O)NCCO)c2ccc(Cl)cc2S1(=O)=O", "note": "(stereo not drawn) [compound 57, 7-((3-Chloro-6-methyl-5,5-dioxido-6,11-dihydrodibenzo [c,f][1,2]thiazepin-11-yl)amino)-N-(2-hydroxyethyl) heptanamide]", "values": [{"measurement": "EC50", "value": "< 10", "unit": "µM"}]}
{"molecule": "CN1c2ccccc2C(NCCCCCCC2=NCCO2)c2ccc(Cl)cc2S1(=O)=O", "note": "(stereo not drawn) [compound 58, 3-Chloro-11-((6-(4,5-dihydrooxazol-2-yl)hexyl)amino)-6-methyl-6,11-dihydrodibenzo[c,f][1,2]thiazepine 5,5-dioxide]", "values": [{"measurement": "EC50", "value": "< 10", "unit": "µM"}]}
{"molecule": "COCCCNC1c2ccccc2N(C)S(=O)(=O)c2cc(OC(C)=O)ccc21", "note": "(stereo not drawn) [compound 59, 11-((3-Methoxypropyl)amino)-6-methyl-5,5-dioxido-6,11-dihydrodibenzo[c,f][1,2]thiazepin-3-yl acetate]", "values": [{"measurement": "EC50", "value": "< 10", "unit": "µM"}]}
{"molecule": "COCCCNC1c2ccccc2N(C)S(=O)(=O)c2ccc(Cl)cc21", "note": "(stereo not drawn) [compound 60, 2-Chloro-11-((3-methoxypropyl)amino)-6-methyl-6,11-dihydrodibenzo [c,f][1,2]thiazepine 5,5-dioxide]", "values": [{"measurement": "EC50", "value": "< 20", "unit": "µM"}]}
{"molecule": "COCCCNC1c2ccccc2N(C)S(=O)(=O)c2cc(SC(C)C)ccc21", "note": "(stereo not drawn) [compound 63, 3-(Isopropylthio)-11-((3-methoxypropyl)amino)-6-methyl-6,11-dihydrodibenzo[c,f][1,2]thiazepine 5,5-dioxide]", "values": [{"measurement": "EC50", "value": "< 10", "unit": "µM"}]}
